Results as given in US9738932B2, “Biomarkers for cardiovascular side-effects induced by cox-2 inhibitory compounds” (FIRALIS SAS, priority 2005, dated 2017).

How the values were obtained:
[1] = system: mRNA expression in cardiovascular tissues; test: Affymetrix GeneChip mRNA expression profiling of monkey tissues (iliac vein, pulmonary vein, aorta, carotid artery, heart) after two-week oral-gavage treatment; details: iliac vein; group average (Vioxx without A60055)
[2] = system: mRNA expression in cardiovascular tissues; details: cynomolgus monkey, in vivo

Cc1ccc(-c2cc(C(F)(F)F)nn2-c2ccc(S(N)(=O)=O)cc2)cc1 [Celebrex]
1.7 fold: CD48 (204118_at) mRNA expression, Avg fold changes vs control [1] | CYBB (203922_s_at) mRNA expression, Avg fold changes vs control [1] | PIK3CD (203879_at) mRNA expression, Avg fold changes vs control [1] | BTN3A1 (207485_x_at) avg fold change vs control [2] | HLA-DRB1 (215193_x_at) avg fold change vs control [2]
3.2 fold: CD3D (213539_at) avg fold change vs control ([2]; 2 weeks)
1.2 fold: BTN2A2 (205298_s_at) mRNA expression, Avg fold changes vs control [1] | HLA-E (200904_at) mRNA expression, Avg fold changes vs control [1] | HLA-F (221978_at) mRNA expression, Avg fold changes vs control [1] | PRKCBP1 (209048_s_at) mRNA expression, Avg fold changes vs control [1] | PRKCBP1 (209049_s_at) mRNA expression, Avg fold changes vs control [1] | SIGIRR (52940_at) mRNA expression, Avg fold changes vs control [1] | CASP1 (211367_s_at) avg fold change vs control [2] | CCNB2 (202705_at) avg fold change vs control [2] | DUSP6 (208893_s_at) avg fold change vs control [2] | 209813_x_at avg fold change vs control ([2]; 2 weeks) | CASP1 (209970_x_at) avg fold change vs control ([2]; 2 weeks) | CTSS (202902_s_at) avg fold change vs control ([2]; 2 weeks) | CYBA (203028_s_at) avg fold change vs control ([2]; 2 weeks) | CYBB (203923_s_at) avg fold change vs control ([2]; 2 weeks)
1.6 fold: BTN3A3 (204821_at) avg fold change vs control [2] | C4A (208451_s_at) avg fold change vs control [2] | HLA-DQB1 (211656_x_at) avg fold change vs control [2] | CXCL11 (211122_s_at) avg fold change vs control ([2]; 2 weeks)
1.3 fold: B2M (216231_s_at) mRNA expression, Avg fold changes vs control [1] | CDC2 (210559_s_at) mRNA expression, Avg fold changes vs control [1] | FCER1G (204232_at) mRNA expression, Avg fold changes vs control [1] | HLA-A (213932_x_at) mRNA expression, Avg fold changes vs control [1] | B2M (201891_s_at) avg fold change vs control [2] | CCL3 (205114_s_at) avg fold change vs control [2] | CD74 (209619_at) avg fold change vs control [2] | FCGR3A (204006_s_at) avg fold change vs control [2] | TNFSF10 (202687_s_at) avg fold change vs control [2] | TNFSF10 (202688_at) avg fold change vs control [2] | BTN3A3 (204820_s_at) avg fold change vs control ([2]; 2 weeks) | CCL8 (214038_at) avg fold change vs control ([2]; 2 weeks) | CTSC (201487_at) avg fold change vs control ([2]; 2 weeks)
1.4 fold: FCGR2A (203561_at) mRNA expression, Avg fold changes vs control [1] | HLA-DMA (217478_s_at) avg fold change vs control [2] | PLA2G4C (209785_s_at) avg fold change vs control [2] | CXCL9 (203915_at) avg fold change vs control ([2]; 2 weeks)
1.0 fold: FCGRT (218831_s_at) mRNA expression, Avg fold changes vs control [1] | FKBP11 (219118_at) mRNA expression, Avg fold changes vs control [1] | HLA-C (211799_x_at) mRNA expression, Avg fold changes vs control [1] | STAT3 (208992_s_at) mRNA expression, Avg fold changes vs control [1] | C1S (208747_s_at) avg fold change vs control [2] | ISGF3G (203882_at) avg fold change vs control [2] | BCL3 (204908_s_at) avg fold change vs control ([2]; 2 weeks) | CD8A (205758_at) avg fold change vs control ([2]; 2 weeks) | CMAH (210571_s_at) avg fold change vs control ([2]; 2 weeks) | CTSK (202450_s_at) avg fold change vs control ([2]; 2 weeks)
0.9 fold: BCL6 (215990_s_at) mRNA expression, Avg fold changes vs control [1] | CCR1 (205098_at) mRNA expression, Avg fold changes vs control [1] | EMP3 (203729_at) mRNA expression, Avg fold changes vs control [1] | ICAM1 (202637_s_at) mRNA expression, Avg fold changes vs control [1] | IL13RA1 (210904_s_at) mRNA expression, Avg fold changes vs control [1] | TCIRG1 (204158_s_at) mRNA expression, Avg fold changes vs control [1] | TMPO (209753_s_at) mRNA expression, Avg fold changes vs control [1] | CCL5 (1405_i_at) avg fold change vs control [2] | GZMB (210164_at) avg fold change vs control [2] | C1R (212067_s_at) avg fold change vs control ([2]; 2 weeks)
2.0 fold: PTPN7 (204852_s_at) mRNA expression, Avg fold changes vs control [1] | AIF1 (213095_x_at) avg fold change vs control [2] | CCL19 (210072_at) avg fold change vs control [2]
0.8 fold: ACE (209749_s_at) mRNA expression, Avg fold changes vs control [1] | FKBP11 (219117_s_at) mRNA expression, Avg fold changes vs control [1] | THY1 (213869_x_at) mRNA expression, Avg fold changes vs control [1] | CLU (208791_at) avg fold change vs control ([2]; 2 weeks)
1.5 fold: CD2 (205831_at) mRNA expression, Avg fold changes vs control [1] | HCLS1 (202957_at) mRNA expression, Avg fold changes vs control [1] | HEM1 (209734_at) mRNA expression, Avg fold changes vs control [1] | TNFRSF21 (218856_at) mRNA expression, Avg fold changes vs control [1] | AIF1 (209901_x_at) avg fold change vs control [2] | C1QA (218232_at) avg fold change vs control ([2]; 2 weeks) | CCL18 (209924_at) avg fold change vs control ([2]; 2 weeks)
2.5 fold: TRB@ (210915_x_at) mRNA expression, Avg fold changes vs control [1]
3.7 fold: CXCL11 (210163_at) avg fold change vs control ([2]; 2 weeks)
3.8 fold: LRMP (204674_at) avg fold change vs control [2]
2.1 fold: IRF7 (208436_s_at) avg fold change vs control [2]
3.6 fold: LAIR1 (208071_s_at) avg fold change vs control [2]
2.4 fold: TRB@ (213193_x_at) mRNA expression, Avg fold changes vs control [1]
2.3 fold: CD53 (203416_at) mRNA expression, Avg fold changes vs control [1] | CCL2 (216598_s_at) avg fold change vs control ([2]; 2 weeks)
1.1 fold: GP6 (220336_s_at) mRNA expression, Avg fold changes vs control [1] | HLA-A (210514_x_at) mRNA expression, Avg fold changes vs control [1] | STAT1 (200887_s_at) mRNA expression, Avg fold changes vs control [1] | STAT1 (AFFX-HUMISGF3A/M97935_3_at) mRNA expression, Avg fold changes vs control [1] | TMSB10 (217733_s_at) mRNA expression, Avg fold changes vs control [1] | C2 (203052_at) avg fold change vs control [2] | CX3CR1 (205898_at) avg fold change vs control [2] | ECGF1 (204858_s_at) avg fold change vs control [2] | IRF1 (202531_at) avg fold change vs control [2] | BTN3A3 (38241_at) avg fold change vs control ([2]; 2 weeks) | C1QB (202953_at) avg fold change vs control ([2]; 2 weeks) | CD14 (201743_at) avg fold change vs control ([2]; 2 weeks) | CXCL10 (204533_at) avg fold change vs control ([2]; 2 weeks) | CXCL12 (209687_at) avg fold change vs control ([2]; 2 weeks)
